Laboratory results reported in patent US20130324461A1, “METHODS AND COMPOSITIONS FOR PREVENTING OR TREATING OBESITY” (priority 2010, published 2013).

Legend:
Assay type in all cases: in vivo
[1] = Weight gain of mice on high-fat diet treated with various A2AR agonists (Example 5, FIG. 5); settings: male C57BL/6 mice
Protocol: Mice receiving a high-fat diet were treated with the A2AR agonists 2-[4-(2-aminoethylaminocarbonylethyl)phenylethylamino]-5′-N-ethylcarboxamidoadenosine (APEC) bistrifluoroacetic acid or 2 5′-N-ethylcarboxamidoadenosine (NECA). Male C57BL/6 mice (n=5) were provided a high-fat diet beginning at day 0. Also beginning on day 0, the mice were treated with daily subcutaneous injection of A2AR agonist. APEC was administered at 0.25 mg/kg/day, and NECA at 0.02 mg/kg/day.

[2] = Body weight of mice on high-fat diet, treated or untreated with A2AR agonist CGS21680 (Example 3, FIG. 3 left panel)
Protocol: Mice were untreated or treated with the A2AR agonist CGS21680 (Tocris) at different time points. CGS21680 (Tocris) was injected s.c. at a dose of 0.5 mg/kg daily either from week 9 to week 13, from week 13 to week 19, or from week 9 to week 19, as indicated in the FIG. 3 legends. Male mice (8 mice per group) were fed a high-fat diet (where 60% of calories are derived from fat) or low-fat diet (where 10% of calories are derived from fat) and the weight of the mice was measured. Special diets were obtained from Research Diets (New Brunswick, N.J.). One group of mice received no A2AR agonist at all (represented by diamonds in the graphs of FIG. 4); another group of mice was received CGS21680 only from week 9 to 13 (triangles); another group of mice received CGS21680 only from week 13 to 19 (squares); another group of mice received CGS21680 from week 9 to 19 (crosses). […] Some mice in the group that received no A2AR agonist at all (diamonds) almost doubled their weight between weeks 9 and 19, reaching up to 50 g total weight. […] Mice that were not injected from week 9 to 13 (squares) reached almost 40 g of weight by week 13.

serum leptin = assay: Serum leptin levels by ELISA after A2AR agonist injection (Example 4, FIG. 4); settings: 8 week old female C57BL/6 mice, 0.5 mg/kg s.c., after 1 and 2 h, p<0.05
Protocol: To elucidate the mechanism by which A2AR agonists reduce weight gain, serum leptin levels were quantified in mice treated with an A2AR agonist. 8 week old Female C57BL/6 mice received subcutaneous injection of the A2AR agonist CGS21680 (0.5 mg/kg). After 1 and 2 h, serum leptin levels were measured by ELISA. […] The data shown in FIG. 4 represent average±SD (n=4). The statistical significance was calculated by Student's t-test: *, p<0.05.

[3] = Body weight of mice on low-fat diet, treated or untreated with A2AR agonist CGS21680 (Example 3, FIG. 3 right panel)
Protocol: Mice were untreated or treated with the A2AR agonist CGS21680 (Tocris) at different time points. CGS21680 (Tocris) was injected s.c. at a dose of 0.5 mg/kg daily either from week 9 to week 13, from week 13 to week 19, or from week 9 to week 19, as indicated in the FIG. 3 legends. Male mice (8 mice per group) were fed a high-fat diet (where 60% of calories are derived from fat) or low-fat diet (where 10% of calories are derived from fat) and the weight of the mice was measured. Special diets were obtained from Research Diets (New Brunswick, N.J.). One group of mice received no A2AR agonist at all (represented by diamonds in the graphs of FIG. 4); another group of mice was received CGS21680 only from week 9 to 13 (triangles); another group of mice received CGS21680 only from week 13 to 19 (squares); another group of mice received CGS21680 from week 9 to 19 (crosses). […] Mice in the group that received no A2AR agonist at all (diamonds) gained a small amount of weight reaching up to ˜35 g by week 19. This is much less than the weight reached by mice on the high-fat diet (˜50 g). […] Mice that were not injected with from week 9 to 13 (squares) did gain weight by week 13.

For `CCNC(=O)[C@H]1O[C@@H](n2cnc3c(N)ncnc32)[C@H](O)[C@@H]1O` [NECA, 5′-N-ethylcarboxamidoadenosine], the “weight gain compared to the control group” value ([1]; high-fat diet from day 0, daily s.c. 0.02 mg/kg/day) was “dramatic reduction in weight gain”.
With `CCNC(=O)[C@H]1O[C@@H](n2cnc3c(N)nc(NCCc4ccc(CCC(=O)NCCN)cc4)nc32)[C@H](O)[C@@H]1O` [APEC, 2-[4-(2-aminoethylaminocarbonylethyl)phenylethylamino]-5′-N-ethylcarboxamidoadenosine] the “weight gain compared to the control group” value ([1]; high-fat diet from day 0, daily s.c. 0.25 mg/kg/day) was “dramatic reduction in weight gain”.
For `CCNC(=O)[C@H]1O[C@@H](n2cnc3c(N)nc(NCCc4ccc(CCC(=O)O)cc4)nc32)[C@H](O)[C@@H]1O` [CGS21680, 3-[4-[2-[[6-amino-9-[(2R,3R,4S,5S)-5-(ethylcarbamoyl)-3,4-dihydroxy-oxolan-2-yl]purin-2-yl]amino]ethyl]phenyl]propanoic acid], the weight gain ([2]; male mice, high-fat diet (60% of calories from fat), 0.5 mg/kg s.c. daily from week 9 to week 19) was “gained little or no weight”, the “weight gain between weeks 9 and 13” value ([2]; male mice, high-fat diet, 0.5 mg/kg s.c. daily only from week 9 to 13) was “gained essentially no weight” and the “further weight gain after start of injections” value ([2]; male mice, high-fat diet, 0.5 mg/kg s.c. daily only from week 13 to 19) was “Essentially no further weight gain”. The body weight gain ([2]; mice treated continuously (week 9 to 19), regardless of high-fat or low-fat diet) was “minimal”, the serum leptin levels (serum leptin) was “significantly increased” and the weight gain ([3]; male mice, low-fat diet (10% of calories from fat), 0.5 mg/kg s.c. daily from week 9 to week 19) was “gained very little weight”. For the same molecule, the “weight gain until week 13” value ([3]; male mice, low-fat diet, 0.5 mg/kg s.c. daily only from week 9 to 13) was “gained essentially no weight”, the “further weight gain after start of injections” value ([3]; male mice, low-fat diet, 0.5 mg/kg s.c. daily only from week 13 to 19) was “essentially no more weight gain” and the “effect on weight gain (overall statement)” value ([3]; mice on low fat diet, 0.5 mg/kg s.c. daily) was “prevented or limited weight gain”.
